Type in all cases: functional
One assay deals with Pseudomonas aeruginosa. In words: Antibacterial activity against Pseudomonas aeruginosa MTCC 1688 assessed as growth inhibition after 24 hr by NCCLS broth microdilution method. As to conditions: MTCC 1688, 24 h.
Another assay deals with Staphylococcus aureus. The assay can be described thus: Antibacterial activity against Staphylococcus aureus MTCC 96 assessed as growth inhibition after 24 hr by NCCLS broth microdilution method. As to conditions: MTCC 96, 24 h. On the technique in general: Broth dilution looks for growth in wells or tubes with falling amounts of substance.
The test system of the next assay is Escherichia coli. The assay can be described thus: Antibacterial activity against Escherichia coli MTCC 443 assessed as growth inhibition after 24 hr by NCCLS broth microdilution method. As to conditions: MTCC 443, 24 h.
In another assay the test system is Aspergillus niger. In words: Antifungal activity against Aspergillus niger MTCC 282 assessed as growth inhibition after 48 hr by NCCLS broth microdilution method. As to conditions: MTCC 282, 48 h.
In a further assay the test system is Candida albicans. In words: Antifungal activity against Candida albicans MTCC 227 assessed as growth inhibition after 48 hr by NCCLS broth microdilution method. As to conditions: MTCC 227, 48 h.
A further assay deals with Streptococcus pyogenes. The assay can be described thus: Antibacterial activity against Streptococcus pyogenes MTCC 442 assessed as growth inhibition after 24 hr by NCCLS broth microdilution method. As to conditions: MTCC 442, 24 h.
In a further assay the test system is Aspergillus clavatus. In words: Antifungal activity against Aspergillus clavatus MTCC 1323 assessed as growth inhibition after 48 hr by NCCLS broth microdilution method. As to conditions: MTCC 1323, 48 h.

SMILES strings stand for the structures. Converted amounts (≈) assume the structure as drawn.

The record followed here is ChEMBL document CHEMBL3045601, “Synthesis of new quinoline-2-pyrazoline-based thiazolinone derivatives as potential antimicrobial agents” (2013).

The term MIC denotes the smallest concentration in the dilution series that meets the test's criterion for growth inhibition. As to `Cc1ccc2nc(Cl)c(C3CC(c4ccc(F)cc4)=NN3C3=NC(=O)CS3)cc2c1` (stereo unspecified), the MIC with Pseudomonas aeruginosa turned out to be 50 µg/mL (≈ 114 µM); with Staphylococcus aureus, 100 µg/mL (≈ 228 µM); in the assay with Escherichia coli it was 50 µg/mL (≈ 114 µM); in the assay with Aspergillus niger it was 250 µg/mL (≈ 570 µM); in the assay with Candida albicans it was 250 µg/mL (≈ 570 µM); with Streptococcus pyogenes, 25 µg/mL (≈ 57 µM). Moreover, the minimal inhibitory concentration (MIC) in the assay with Aspergillus clavatus is 100 µg/mL (≈ 228 µM).

In the case of `Cc1ccc2nc(Cl)c(C3CC(c4ccccc4[N+](=O)[O-])=NN3C3=NC(=O)CS3)cc2c1` (stereo unspecified), the MIC turned out to be 12.5 µg/mL (≈ 26.8 µM) with Pseudomonas aeruginosa; 250 µg/mL (≈ 537 µM) with Staphylococcus aureus; 25 µg/mL (≈ 53.7 µM) in the assay with Escherichia coli; 50 µg/mL (≈ 107 µM) with Aspergillus niger; 250 µg/mL (≈ 537 µM) with Candida albicans; 25 µg/mL (≈ 53.7 µM) in the assay on Streptococcus pyogenes. The MIC with Aspergillus clavatus worked out at 12.5 µg/mL (≈ 26.8 µM).

Consider `Cc1ccc2nc(Cl)c(C3CC(c4cccc([N+](=O)[O-])c4)=NN3C3=NC(=O)CS3)cc2c1` (stereo unspecified), for which the MIC in the assay with Pseudomonas aeruginosa stood at 500 µg/mL (≈ 1070 µM); in the assay on Staphylococcus aureus, 500 µg/mL (≈ 1070 µM); in the assay on Escherichia coli it was 250 µg/mL (≈ 537 µM); in the assay with Aspergillus niger, 100 µg/mL (≈ 215 µM); in the assay with Candida albicans, 500 µg/mL (≈ 1070 µM); in the assay with Streptococcus pyogenes, 500 µg/mL (≈ 1070 µM). The MIC in the assay with Aspergillus clavatus is 50 µg/mL (≈ 107 µM).

Turning to `Cc1ccc2nc(Cl)c(C3CC(c4ccc([N+](=O)[O-])cc4)=NN3C3=NC(=O)CS3)cc2c1` (stereo unspecified), the MIC was 250 µg/mL (≈ 537 µM) in the assay with Pseudomonas aeruginosa; 100 µg/mL (≈ 215 µM) with Staphylococcus aureus; 50 µg/mL (≈ 107 µM) in the assay on Escherichia coli; 25 µg/mL (≈ 53.7 µM) with Aspergillus niger; 500 µg/mL (≈ 1070 µM) in the assay on Candida albicans; 50 µg/mL (≈ 107 µM) with Streptococcus pyogenes. Besides, the MIC with Aspergillus clavatus was 100 µg/mL (≈ 215 µM).

As to `Cc1ccc2nc(Cl)c(C3CC(c4ccccc4)=NN3C3=NC(=O)CS3)cc2c1` (stereo unspecified), the MIC in the assay on Pseudomonas aeruginosa turned out to be 250 µg/mL (≈ 594 µM); in the assay on Staphylococcus aureus, 250 µg/mL (≈ 594 µM); with Escherichia coli, 500 µg/mL (≈ 1190 µM); in the assay with Aspergillus niger it was 500 µg/mL (≈ 1190 µM); in the assay on Candida albicans, 1000 µg/mL (≈ 2380 µM); in the assay on Streptococcus pyogenes, 500 µg/mL (≈ 1190 µM). In addition, the minimal inhibitory concentration (MIC) with Aspergillus clavatus is 500 µg/mL (≈ 1190 µM).

With `Cc1ccc2nc(Cl)c(C3CC(c4ccccc4O)=NN3C3=NC(=O)CS3)cc2c1` (stereo unspecified), the minimum inhibitory concentration (MIC) in the assay with Pseudomonas aeruginosa stood at 500 µg/mL (≈ 1140 µM); with Staphylococcus aureus it was 500 µg/mL (≈ 1140 µM); in the assay on Escherichia coli, 500 µg/mL (≈ 1140 µM); in the assay with Aspergillus niger, 500 µg/mL (≈ 1140 µM); in the assay with Candida albicans it was 1000 µg/mL (≈ 2290 µM); in the assay with Streptococcus pyogenes, 250 µg/mL (≈ 572 µM). For the same molecule, the minimum inhibitory concentration (MIC) in the assay with Aspergillus clavatus amounted to 1000 µg/mL (≈ 2290 µM).

Consider `Cc1ccc2nc(Cl)c(C3CC(c4ccc(O)cc4)=NN3C3=NC(=O)CS3)cc2c1` (stereo unspecified), for which the minimal inhibitory concentration (MIC) in the assay on Pseudomonas aeruginosa turned out to be 250 µg/mL (≈ 572 µM); in the assay with Staphylococcus aureus it was 500 µg/mL (≈ 1140 µM); with Escherichia coli, 500 µg/mL (≈ 1140 µM); in the assay on Aspergillus niger it was 1000 µg/mL (≈ 2290 µM); in the assay on Candida albicans, 1000 µg/mL (≈ 2290 µM); in the assay with Streptococcus pyogenes it was 250 µg/mL (≈ 572 µM). Moreover, the MIC in the assay on Aspergillus clavatus is 1000 µg/mL (≈ 2290 µM).

In the case of `COc1ccc(C2=NN(C3=NC(=O)CS3)C(c3cc4cc(C)ccc4nc3Cl)C2)cc1` (stereo unspecified), the MIC worked out at 500 µg/mL (≈ 1110 µM) with Pseudomonas aeruginosa; 500 µg/mL (≈ 1110 µM) with Staphylococcus aureus; 500 µg/mL (≈ 1110 µM) in the assay on Escherichia coli; 500 µg/mL (≈ 1110 µM) with Aspergillus niger; 1000 µg/mL (≈ 2220 µM) with Candida albicans; 500 µg/mL (≈ 1110 µM) in the assay on Streptococcus pyogenes. In addition, the MIC in the assay on Aspergillus clavatus was 500 µg/mL (≈ 1110 µM).

In the case of `Cc1ccc2nc(Cl)c(C3CC(c4ccccc4Cl)=NN3C3=NC(=O)CS3)cc2c1` (stereo unspecified), the MIC with Pseudomonas aeruginosa was 50 µg/mL (≈ 110 µM); in the assay on Staphylococcus aureus it was 250 µg/mL (≈ 549 µM); with Escherichia coli it was 50 µg/mL (≈ 110 µM); with Aspergillus niger, 50 µg/mL (≈ 110 µM); with Candida albicans, 100 µg/mL (≈ 220 µM); in the assay with Streptococcus pyogenes it was 50 µg/mL (≈ 110 µM). The minimal inhibitory concentration (MIC) with Aspergillus clavatus came to 100 µg/mL (≈ 220 µM).

Take `Cc1ccc2nc(Cl)c(C3CC(c4ccc(Cl)cc4)=NN3C3=NC(=O)CS3)cc2c1` (stereo unspecified): the MIC with Pseudomonas aeruginosa turned out to be 100 µg/mL (≈ 220 µM); with Staphylococcus aureus, 50 µg/mL (≈ 110 µM); in the assay on Escherichia coli it was 250 µg/mL (≈ 549 µM); in the assay on Aspergillus niger it was 100 µg/mL (≈ 220 µM); in the assay on Candida albicans, 500 µg/mL (≈ 1100 µM); in the assay with Streptococcus pyogenes, 50 µg/mL (≈ 110 µM). The MIC in the assay with Aspergillus clavatus turned out to be 50 µg/mL (≈ 110 µM).

As to `Cc1ccc2nc(Cl)c(C3CC(c4ccccc4F)=NN3C3=NC(=O)CS3)cc2c1` (stereo unspecified), the MIC was determined as 250 µg/mL (≈ 570 µM) in the assay on Pseudomonas aeruginosa; 100 µg/mL (≈ 228 µM) in the assay on Staphylococcus aureus; 25 µg/mL (≈ 57 µM) in the assay with Escherichia coli; 50 µg/mL (≈ 114 µM) in the assay on Aspergillus niger; 100 µg/mL (≈ 228 µM) in the assay with Candida albicans; 500 µg/mL (≈ 1140 µM) in the assay with Streptococcus pyogenes. Further, the MIC with Aspergillus clavatus was determined as 500 µg/mL (≈ 1140 µM).

On to `Cc1ccc2nc(Cl)c(C3CC(c4cccc(F)c4)=NN3C3=NC(=O)CS3)cc2c1` (stereo unspecified), for which the MIC worked out at 100 µg/mL (≈ 228 µM) in the assay on Pseudomonas aeruginosa; 500 µg/mL (≈ 1140 µM) in the assay on Staphylococcus aureus; 500 µg/mL (≈ 1140 µM) with Escherichia coli; 500 µg/mL (≈ 1140 µM) in the assay with Aspergillus niger; 1000 µg/mL (≈ 2280 µM) in the assay on Candida albicans; 100 µg/mL (≈ 228 µM) in the assay with Streptococcus pyogenes. Besides, the MIC in the assay on Aspergillus clavatus was 500 µg/mL (≈ 1140 µM).

Regarding `CC1(C)S[C@@H]2[C@H](NC(=O)[C@H](N)c3ccccc3)C(=O)N2[C@H]1C(=O)O` [AMPICILLIN], the MIC with Pseudomonas aeruginosa amounted to 100 µg/mL (≈ 286 µM); in the assay on Staphylococcus aureus it was 250 µg/mL (≈ 715 µM); in the assay with Escherichia coli, 100 µg/mL (≈ 286 µM); with Streptococcus pyogenes it was 100 µg/mL (≈ 286 µM).

Take `COC1=CC(=O)C[C@@H](C)[C@]12Oc1c(Cl)c(OC)cc(OC)c1C2=O` [GRISEOFULVIN]: the minimal inhibitory concentration (MIC) in the assay on Aspergillus niger came to 100 µg/mL (≈ 283 µM); in the assay on Candida albicans, 500 µg/mL (≈ 1420 µM); with Aspergillus clavatus, 100 µg/mL (≈ 283 µM).
